Assay results: patent US4388311A, “Method for the induction of menses” (G. D. Searle & Co., priority 1982, dated 1983)
“And” between values parts separate entries of the source, which are not always exact repeats. Equal entries are not always repeated.

Experiments:
Type in all cases: in vivo, rat
[1] = test system: pregnancy in rats; test: Pregnancy termination in rats, compounds administered intragastrically for four days (Table 1); conditions: for Serum Progesterone (Percent Control) / Serum Progesterone ng/ml + S.E.: serum day 11, 24 hours after initial injection; for Adrenal Wt. mg + SE / Fetal Viability: Normal Fetuses/Implantation Sites / Fetal Viability: Normal Fetuses/Implantation Sites (Percent) / Number of Rats Pregnant/Number of Rats Treated / Number of Rats Pregnant/Number of Rats Treated (Percent): autopsy day 14
Protocol: (§1) The following tables list the results for a compound of Formula IV as compared with a control of previously known 2α-cyano-17β-hydroxy-3-oxo-4,4,17α-trimethylandrost-5-end(Cyanoketone) for termination of pregnancy.
(§2) ^1 Compounds were administered intragastrically once daily on days 10
through 13 of pregnancy in a vehicle consisting of PEG400, propylene
glycol and 100 percent ethanol (50:40:10, v:v:v). Serum for progesterone
determination was drawn on day 11 of pregnancy, 24 hours after the initia
injection of compound. The animals were autopsied on day 14 of pregnancy.

[2] = test system: pregnancy in rats; test: Termination of pregnancy in rats, compounds administered subcutaneously (Table 2); conditions: for Serum Progesterone (Percent Control) / Serum Progesterone ng/ml + S.E.: serum day 11, 24 hours after initial injection
Protocol: as §1
^1 Compounds given subcutaneously in corn oil vehicle once daily on
days 10 through 13 of pregnancy. Serum for progesterone determination was
drawn on day 11 of pregnancy, 24 hours after the initial injection of
(§3) compound. The animals were autopsied on day 14 of pregnancy.
^2 Serum progesterone values determined by RIA at Interlab Associates

[3] = test system: pregnancy in rats; test: Pregnancy termination in rats, compounds administered intragastrically on day 10 of pregnancy (Table 3); conditions: for Serum Progesterone (Percent Control) / Serum Progesterone ng/ml + S.E.: serum day 11, 24 hours after injection; for Adrenal Wt. mg + SE / Fetal Viability: Normal Fetuses/Implantation Sites / Fetal Viability: Normal Fetuses/Implantation Sites (Percent) / Number of Rats Pregnant/Number of Rats Treated / Number of Rats Pregnant/Number of Rats Treated (Percent): autopsy day 14
Protocol: as §1, §2
of pregnancy in a vehicle consisting of PEG400, propylene glycol and 100
percent ethanol (50:40:10, v:v:v). Serum for progesterone determination
was drawn on day 11 of pregnancy, 24 hours after the initial injection of
as §3

[4] = 2 mg/kg/day intragastrically days 10-13 of pregnancy
[5] = 2 mg/kg/day intragastrically once daily days 10-13 of pregnancy
[6] = 4 mg/kg/day intragastrically days 10-13 of pregnancy
[7] = 4 mg/kg/day intragastrically once daily days 10-13 of pregnancy
[8] = 8 mg/kg/day intragastrically days 10-13 of pregnancy
[9] = 8 mg/kg/day intragastrically once daily days 10-13 of pregnancy
[10] = 16 mg/kg/day intragastrically days 10-13 of pregnancy
[11] = 16 mg/kg/day intragastrically once daily days 10-13 of pregnancy
[12] = 2 mg/kg/day subcutaneously days 10-13 of pregnancy
[13] = 2 mg/kg/day subcutaneously in corn oil once daily days 10-13 of pregnancy, autopsy day 14
[14] = 4 mg/kg/day subcutaneously days 10-13 of pregnancy
[15] = 4 mg/kg/day subcutaneously in corn oil once daily days 10-13 of pregnancy, autopsy day 14
[16] = 8 mg/kg/day subcutaneously days 10-13 of pregnancy
[17] = 8 mg/kg/day subcutaneously in corn oil once daily days 10-13 of pregnancy, autopsy day 14
[18] = 16 mg/kg/day subcutaneously days 10-13 of pregnancy, 16 mg/kg/day
[19] = 16 mg/kg/day subcutaneously in corn oil once daily days 10-13 of pregnancy, autopsy day 14
[20] = 16 mg/kg/day subcutaneously in corn oil once daily days 10-13 of pregnancy, autopsy day 14, 16 mg/kg/day
[21] = 4 mg/kg intragastrically on day 10 of pregnancy
[22] = 4 mg/kg intragastrically once on day 10 of pregnancy
[23] = 8 mg/kg intragastrically on day 10 of pregnancy
[24] = 8 mg/kg intragastrically once on day 10 of pregnancy
[25] = 16 mg/kg intragastrically on day 10 of pregnancy
[26] = 16 mg/kg intragastrically once on day 10 of pregnancy

CC(=O)OC1=C(C#N)C[C@@]2(C)C(=CC[C@@H]3[C@@H]2CC[C@@]2(C)[C@H]3CC[C@]2(C)O)C1(C)C [3-(acetyloxy)-17β-hydroxy-4,4,17α-trimethylandrosta-2,5-diene-2-carbonitrile]
Serum Progesterone (Percent Control) [1, 4]: 109 Percent Control | Serum Progesterone ng/ml + S.E. [1, 4]: 49.6 + 6.2 ng/ml | Adrenal Wt. mg + SE [1, 5]: 68.9 + 2.2 mg | Fetal Viability: Normal Fetuses/Implantation Sites [1, 5]: 60/89 | Fetal Viability: Normal Fetuses/Implantation Sites (Percent) [1, 5]: 67% | Number of Rats Pregnant/Number of Rats Treated [1, 5]: 7/9 | Number of Rats Pregnant/Number of Rats Treated (Percent) [1, 5]: 78% | Serum Progesterone (Percent Control) [1, 6]: 29 Percent Control | Serum Progesterone ng/ml + S.E. [1, 6]: 13.4 + 3.9 ng/ml | Adrenal Wt. mg + SE [1, 7]: 68.6 + 2.3 mg | Fetal Viability: Normal Fetuses/Implantation Sites [1, 7]: 0/112 | Fetal Viability: Normal Fetuses/Implantation Sites (Percent) [1, 7]: 0% | Number of Rats Pregnant/Number of Rats Treated [1, 7]: 0/10 | Number of Rats Pregnant/Number of Rats Treated (Percent) [1, 7]: 0% | Serum Progesterone (Percent Control) [1, 8]: 40 Percent Control | Serum Progesterone ng/ml + S.E. [1, 8]: 18.1 + 2.5 ng/ml | Adrenal Wt. mg + SE [1, 9]: 70.3 + 3.1 mg | Fetal Viability: Normal Fetuses/Implantation Sites [1, 9]: 0/95 | Fetal Viability: Normal Fetuses/Implantation Sites (Percent) [1, 9]: 0% | Number of Rats Pregnant/Number of Rats Treated [1, 9]: 0/10 | Number of Rats Pregnant/Number of Rats Treated (Percent) [1, 9]: 0% | Serum Progesterone (Percent Control) [1, 10]: 29 Percent Control | Serum Progesterone ng/ml + S.E. [1, 10]: 13.4 + 2.0 ng/ml | Adrenal Wt. mg + SE [1, 11]: 72.1 + 2.1 mg | Fetal Viability: Normal Fetuses/Implantation Sites [1, 11]: 0/111 | Fetal Viability: Normal Fetuses/Implantation Sites (Percent) [1, 11]: 0% | Number of Rats Pregnant/Number of Rats Treated [1, 11]: 0/10 | Number of Rats Pregnant/Number of Rats Treated (Percent) [1, 11]: 0% | Serum Progesterone (Percent Control) [2, 12]: 91 Percent Control | Serum Progesterone ng/ml + S.E. [2, 12]: 52.3 + 2.8 ng/ml | Adrenal Wt. mg + SE [2, 13]: 81.2 + 3.2 mg | Fetal Viability: Normal Fetuses/Implantation Sites [2, 13]: 101/109 | Fetal Viability: Normal Fetuses/Implantation Sites (Percent) [2, 13]: 93% | Number of Rats Pregnant/Number of Rats Treated [2, 13]: 9/9 | Number of Rats Pregnant/Number of Rats Treated (Percent) [2, 13]: 100% | Serum Progesterone (Percent Control) [2, 14]: 32 Percent Control | Serum Progesterone ng/ml + S.E. [2, 14]: 14.2 + 4.9 ng/ml | Adrenal Wt. mg + SE [2, 15]: 72.9 + 3.8 mg | Fetal Viability: Normal Fetuses/Implantation Sites [2, 15]: 21/72 | Fetal Viability: Normal Fetuses/Implantation Sites (Percent) [2, 15]: 29% | Number of Rats Pregnant/Number of Rats Treated [2, 15]: 2/7 | Number of Rats Pregnant/Number of Rats Treated (Percent) [2, 15]: 29% | Serum Progesterone (Percent Control) [2, 16]: 29 Percent Control | Serum Progesterone ng/ml + S.E. [2, 16]: 12.7 + 1.4 ng/ml | Adrenal Wt. mg + SE [2, 17]: 83.9 + 2.0 mg | Fetal Viability: Normal Fetuses/Implantation Sites [2, 17]: 0/112 | Fetal Viability: Normal Fetuses/Implantation Sites (Percent) [2, 17]: 0% | Number of Rats Pregnant/Number of Rats Treated [2, 17]: 0/9 | Number of Rats Pregnant/Number of Rats Treated (Percent) [2, 17]: 0% | Serum Progesterone (Percent Control) [2, 18]: 26 Percent Control and 36 Percent Control | Serum Progesterone ng/ml + S.E. [2, 18]: 13.1 + 1.4 ng/ml and 15.7 + 2.8 ng/ml | Fetal Viability: Normal Fetuses/Implantation Sites (Percent) [2, 19]: 0% | Number of Rats Pregnant/Number of Rats Treated [2, 19]: 0/8 | Number of Rats Pregnant/Number of Rats Treated (Percent) [2, 19]: 0% | Adrenal Wt. mg + SE [2, 20]: 93.8 + 4.9 mg and 98.3 + 2.8 mg | Fetal Viability: Normal Fetuses/Implantation Sites [2, 20]: 0/98 and 0/84 | Serum Progesterone (Percent Control) [3, 21]: 33 Percent Control | Serum Progesterone ng/ml + S.E. [3, 21]: 19.0 + 7.4 ng/ml | Adrenal Wt. mg + SE [3, 22]: 60.0 + 4.2 mg | Fetal Viability: Normal Fetuses/Implantation Sites [3, 22]: 6/82 | Fetal Viability: Normal Fetuses/Implantation Sites (Percent) [3, 22]: 7% | Number of Rats Pregnant/Number of Rats Treated [3, 22]: 1/8 | Number of Rats Pregnant/Number of Rats Treated (Percent) [3, 22]: 13% | Serum Progesterone (Percent Control) [3, 23]: 18 Percent Control | Serum Progesterone ng/ml + S.E. [3, 23]: 10.4 + 2.5 ng/ml | Adrenal Wt. mg + SE [3, 24]: 62.0 + 2.5 mg | Fetal Viability: Normal Fetuses/Implantation Sites [3, 24]: 0/81 | Fetal Viability: Normal Fetuses/Implantation Sites (Percent) [3, 24]: 0% | Number of Rats Pregnant/Number of Rats Treated [3, 24]: 0/7 | Number of Rats Pregnant/Number of Rats Treated (Percent) [3, 24]: 0% | Serum Progesterone (Percent Control) [3, 25]: 24 Percent Control | Serum Progesterone ng/ml + S.E. [3, 25]: 13.8 + 1.7 ng/ml | Adrenal Wt. mg + SE [3, 26]: 56.8 + 2.0 mg | Fetal Viability: Normal Fetuses/Implantation Sites [3, 26]: 0/60 | Fetal Viability: Normal Fetuses/Implantation Sites (Percent) [3, 26]: 0% | Number of Rats Pregnant/Number of Rats Treated [3, 26]: 0/6 | Number of Rats Pregnant/Number of Rats Treated (Percent) [3, 26]: 0%
